Experimental findings from patent publication US20230201134A1, “COMPOSITIONS FOR THE MANAGEMENT OF DEMYELINATING DISORDERS” (priority 2021, published 2023) are described below.

Common to all, as to format: in vivo, mouse
Assay [1] relates to Transient receptor potential ankyrin 1 (TRPA1). Nature of the assay: TRPA1 in brain tissue homogenate (ELISA), cuprizone/rapamycin demyelination model. Conditions: compared to the demyelination control, Withaferin A 25 mg/kg, BDMC 12.5 mg/kg, combination 37.5 mg/kg, orally once per day. The text has this: (§1) The Eight-week-old male C56BL/6 J mice were selected and randomized into ten animals in each group (Table 1). Demyelination was induced by 0.3% cuprizone in combination with rapamycin (Hilary H S, Kathryn K B, Daniela C P, Priya N, Wendy B M. A New Model of Cuprizone-Mediated Demyelination/Remyelination. Am Society Neurochem. 2014: 1-16). Briefly, groups undergo demyelination by feeding on a diet containing 0.3% cuprizone mixed into Rodent Diet. These mice received additionally intra-peritoneal rapamycin injections 5 days a week with a vehicle solution.
(§2) After 8 weeks of treatment, all cuprizone feedings and all injections of rapamycin was discontinued. The animals were subjected to behavioral analysis and at end of study, brain samples and serum samples were collected for estimation of Molecular and protein biomarkers by ELISA and Immunohistochemistry of brain was assessed for Demyelination/Remyelination.
(§3) Withaferin A or BDMC were administered orally once per day to mouse, for 8 weeks after treatment with Cuprizone and Rapamycin (Table 1). The dose response of BDMC or Withaferin was assessed by measuring concentration of biomarkers, Myelin Oligodendrocyte Glycoprotein (MOG) (FIG. 1) Brain Derived Neurotrophic Factor (BDNF) (FIG. 2), in serum. […]

Assay [2] concerns C56BL/6 J mice. Nature of the assay: Grip strength test in demyelinated mice. Conditions: forelimb strength, compared to the demyelinated control; Withaferin A 25 mg/kg, BDMC 12.5 mg/kg, combination 37.5 mg/kg.
From the text: as §1, §2

Assay [3] has as its system C56BL/6 J mice. Nature of the assay: Motor coordination and learning: Rotarod test in demyelinated mice. Conditions: Rotarod 16 rpm, 60 s, Withaferin A 25 mg/kg, BDMC 12.5 mg/kg, combination 25 + 12.5 mg/kg, demyelinated control 3/10.
From the text: as §1, §2
Motor coordination and balance were evaluated in a Rotarod apparatus which consists of a motor-driven rotating rod whose speed can be adjusted. All mice were evaluated on the Rotarod three times a day for two consecutive days, with the rotation set at 15 to 16 revolutions per minute (rpm) (Rozas, G.; Guerra, M. J.; Labandeira Garcia, J. L. An automated Rotarod method for quantitative drug-free evaluation of overall motor deficits in rat models of Parkinsonism. Brain Res. Protoc. 1997, 2, 75-84). To test the performance, the mice were placed on the rotating cylinder at an angle of 45 with an initial rotation speed of 16 rpm, and were allowed to run for 60 s. The trial was repeated after 5-10 min. The falls and flips (when the animal hangs on to the cylinder and continues all the way around) were recorded within 60 s of each trial.
Background: Falling from the rotarod earlier than controls is read as motor impairment.

Assay [4] concerns Myelin Oligodendrocyte Glycoprotein (MOG), Brain Derived Neurotrophic Factor (BDNF). Nature of the assay: Dose response study, MOG and BDNF in serum. The settings on record: orally once per day for 8 weeks; from serum MOG and BDNF dose response.
From the text: as §1
Withaferin A or BDMC were administered orally once per day to mouse, for 8 weeks after treatment with Cuprizone and Rapamycin (Table 1). The dose response of BDMC or Withaferin was assessed by measuring concentration of biomarkers, Myelin Oligodendrocyte Glycoprotein (MOG) (FIG. 1) Brain Derived Neurotrophic Factor (BDNF) (FIG. 2), in serum.

Assay [5] deals with CXC chemokine receptor 2 (CXCR2). Nature of the assay: CXCR2 in brain tissue homogenate (ELISA), cuprizone/rapamycin demyelination model. Conditions: compared to the demyelination control, Withaferin A 25 mg/kg, BDMC 12.5 mg/kg, combination 37.5 mg/kg, orally once per day.
From the text: as §1, §2, §3
(ELISA stands for enzyme-linked immunosorbent assay.)

In assay [6] the test system is Myelin basic protein (MBP). Nature of the assay: Myelin basic protein in brain tissue homogenate (ELISA), cuprizone/rapamycin demyelination model. Conditions: compared to the demyelination control, Withaferin A 25 mg/kg, BDMC 12.5 mg/kg, combination 37.5 mg/kg, orally once per day.
From the text: as §1, §2, §3

Assay [7] deals with Platelet Derived Growth Factor Receptor alpha (PDGFRa). Nature of the assay: PDGFRa in brain tissue homogenate (ELISA), cuprizone/rapamycin demyelination model. The settings on record: compared to the demyelination control, Withaferin A 25 mg/kg, BDMC 12.5 mg/kg, combination 37.5 mg/kg, orally once per day.
From the text: as §1, §2, §3

Assay [8] relates to Chondroitin Sulfate Proteoglycan 4 (NG2). Nature of the assay: NG2 in brain tissue homogenate (ELISA), cuprizone/rapamycin demyelination model. Conditions: compared to the demyelination control, Withaferin A 25 mg/kg, BDMC 12.5 mg/kg, combination 37.5 mg/kg, orally once per day.
From the text: as §1, §2, §3

The subject of assay [9] is Amphoterin-induced protein 3 (AMIGO3). Nature of the assay: AMIGO3 in brain tissue homogenate (ELISA), cuprizone/rapamycin demyelination model. Conditions: compared to the demyelination control, Withaferin A 25 mg/kg, BDMC 12.5 mg/kg, combination 37.5 mg/kg, orally once per day.
From the text: as §1, §2, §3

In assay [10] the test system is C56BL/6 J mice. Nature of the assay: Locomotor activity test (Actophotometer) in demyelinated mice. The settings on record: 5 minutes, p.o., Mean ± S.E., 10 animals; for locomotor activity score, 3 hr after treatment: demyelinated control 148 ± 14.48; for locomotor activity score, 2 hr after treatment: demyelinated control 158 ± 14.02; for locomotor activity score, 1 hr after treatment: demyelinated control 170 ± 20.18.
From the text: as §1, §2
Actophotometer (Activity cage) is designed to study the spontaneous or induced or locomotor activity in small animals like mice or rats. In this apparatus, the Optical sensors and emitters are present to record the horizontal movements of the animals on a six-digit digital counter display. Each animal was placed in Actophotometer for 5 minutes and basal activity score was recorded for all animals. Each animal was treated with respective drugs and activity score was recorded after 1, 2, and 3 hours.

The subject of the next assay is C-reactive Protein (CRP). Nature of the assay: C-reactive protein (ELISA), cuprizone/rapamycin demyelination model. The settings on record: compared to the demyelination control, Withaferin A 25 mg/kg, BDMC 12.5 mg/kg, combination 37.5 mg/kg, orally once per day.
From the text: as §1, §2, §3

Assay [11] deals with C56BL/6 J mice. Nature of the assay: Immunohistochemistry of brain for demyelination/remyelination. Conditions: GST-π staining; Withaferin A 25 mg/kg, BDMC 12.5 mg/kg, combination 37.5 mg/kg; versus demyelinated control.
From the text: as §1, §2

`O=C(/C=C/c1ccc(O)cc1)CC(=O)/C=C/c1ccc(O)cc1` [BDMC, Bisdemethoxycurcumin]: in assay [1], the “down regulation of TRPA1 inflammatory marker” value amounted to 17%. The “improvement in the grip strength” value in the assay with C56BL/6 J mice [2] stood at 37.5%. In the assay on C56BL/6 J mice [3], the “No. of mice which stayed on rota rod/total no. of animals” value was 5/10. In assay [4], the optimum effective dose was 12.5 mg/kg. In addition, in [5], the “down regulation of CXC chemokine receptor 2 (CXCR2) inflammatory marker” value was found to be 35%. For the same compound, the “proliferation of Myelin basic protein (MBP)” value in [6] amounted to 122%. Also, the “upregulation of PDGFRa” value in assay [7] was 73%. Further, the “upregulation of NG2” value in assay [8] was found to be 90%. Besides, the “down regulation of AMIGO3 inflammatory marker” value in assay [9] is on record as 27%. In the assay on C56BL/6 J mice [10], the “locomotor activity score, 3 hr after treatment” value turned out to be 190 ± 7.35; the “locomotor activity score, 2 hr after treatment” value came out at 200 ± 10.70; the “locomotor activity score, 1 hr after treatment” value is 220 ± 21.11. In addition, in the assay with C-reactive Protein (CRP), the “down regulation of C-reactive Protein (CRP) inflammatory marker” value amounted to 35%.

On to `CC1=C(CO)C(=O)O[C@@H]([C@@H](C)[C@H]2CC[C@H]3[C@@H]4C[C@H]5O[C@]56[C@@H](O)C=CC(=O)[C@]6(C)[C@H]4CC[C@]23C)C1` [Withaferin A], for which the “down regulation of TRPA1 inflammatory marker” value in assay [1] stood at 43%. For the same compound, the “improvement in the grip strength” value in the assay on C56BL/6 J mice [2] was 25%. Moreover, the “immunohistochemistry findings of cerebellar cortical layer” value with C56BL/6 J mice [11] was “few degenerated Purkinje cells with pyknotic cell bodies and inconspicuous dendritic processes”. In addition, the “No. of mice which stayed on rota rod/total no. of animals” value with C56BL/6 J mice [3] was 5 out of 10. Further, in the assay on C56BL/6 J mice [3] (listed as Withaferin), the “No. of mice which stayed on rota rod/total no. of animals” value is 5/10. The optimum effective dose in assay [4] was found to be 25 mg/kg. In addition, the “down regulation of CXC chemokine receptor 2 (CXCR2) inflammatory marker” value in assay [5] came to 32%. The “proliferation of Myelin basic protein (MBP)” value in [6] was 64%. Besides, in [7], the “upregulation of PDGFRa” value is 22%. Further, in assay [8], the “upregulation of NG2” value came to 30%. For the same compound, the “down regulation of AMIGO3 inflammatory marker” value in assay [9] is listed as 36%. For the same compound, in the assay on C56BL/6 J mice [10], the “locomotor activity score, 3 hr after treatment” value stood at 200 ± 9.01; the “locomotor activity score, 2 hr after treatment” value was found to be 210 ± 17.23; the “locomotor activity score, 1 hr after treatment” value was 240 ± 17.22. In addition, in the assay with C-reactive Protein (CRP), the “down regulation of C-reactive Protein (CRP) inflammatory marker” value was 32%.
